Measurements taken from EPA's CvTdb concentration-time database.

Test system: Rat
Test: concentration in plasma after dosing
Conditions: dosed: Primidone, oral

CCC1(c2ccccc2)C(=O)NC(=O)NC1=O [Phenobarbital]
concentration in plasma [µg/mL]
Conditions	0.25 h	0.5 h	1.5 h	3 h	6 h	9 h	12 h	18 h	22 h	30 h
30 mg/kg, Female, F344	–	–	0.41	0.54	1.06	0.9	1.11	0.86	0.93	–
30 mg/kg, Male, F344	0.3	0.33	2.03	2.98	3.51	2.72	2.43	1.66	1.06	–
80 mg/kg, Female, F344	–	–	0.63	1.1	1.96	2.19	1.98	1.96	1.5	–
80 mg/kg, Female, Harlan Sprague-Dawley	0.34	0.93	–	–	–	–	5.66	–	–	–
80 mg/kg, Male, F344	–	–	3.33	3.62	6.53	7.43	–	4.02	2.87	–
130 mg/kg, Female, F344	–	0.96	0.87	4.5	9.67	3.05	9.03	–	2.04	1.92
130 mg/kg, Female, Harlan Sprague-Dawley	–	–	4.09	–	–	–	–	–	–	–
130 mg/kg, Male, F344	–	–	4.15	–	7.7	9.61	–	–	4.12	2.26
130 mg/kg, Male, Harlan Sprague Dawley	–	–	–	0.84	–	–	2.49	–	–	–
